Earlier results in patent publication US12539302B2, “Methods and compositions for the treatment of hair loss” (Aneira Pharma, Inc., priority 2019, dated 2026).
Like-named read-outs stand apart in the source and are kept apart here.

Tests used:
[1] = target: T1, human FP receptors (Homo sapiens, UniProt P43088)
[2] = target: T1, human FP receptors; conditions: FP receptor agonist
[3] = system: hair growth; conditions: McCarey et al. 2004
[4] = system: dihydrotestosterone (DHT) production; conditions: oral; including prostate gland and scalp
[5] = propylene glycol, methanol, ethanol and 2-propanol
[6] = system: hair growth
[7] = system: elevated intraocular pressure model of glaucoma; conditions: Gagliuso et al. 2004
[8] = system: elevated intraocular pressure; conditions: patients non-responsive to latanoprost, Gandolfi 2003

T1 sequence (P43088 whole entry): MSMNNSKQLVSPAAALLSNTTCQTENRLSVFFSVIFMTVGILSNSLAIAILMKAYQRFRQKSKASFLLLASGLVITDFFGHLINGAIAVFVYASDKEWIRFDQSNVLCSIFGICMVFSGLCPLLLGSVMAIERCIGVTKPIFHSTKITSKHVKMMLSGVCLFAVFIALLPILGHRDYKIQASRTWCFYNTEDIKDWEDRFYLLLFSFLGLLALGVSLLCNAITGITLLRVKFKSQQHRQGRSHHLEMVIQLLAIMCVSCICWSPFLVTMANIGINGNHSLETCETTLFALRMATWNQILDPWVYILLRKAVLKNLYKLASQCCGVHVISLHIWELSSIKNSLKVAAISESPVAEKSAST

O=C(O)CCC/C=C\C[C@@H]1[C@@H](CC[C@@H](O)CCc2ccccc2)[C@H](O)C[C@@H]1O [Latanoprost free acid, Latanoprost acid]
potency as FP receptor ligand relative to latanoprost [1]: two-hundred times more potent
potency relative to PGF2α [2]: twice the potency

CCCCCCCC(=O)CC[C@@H]1[C@@H](C/C=C\CCCC(=O)OC(C)C)[C@@H](O)C[C@H]1O [Uenoprostone isopropyl ester, Unoprostone isopropyl ester]
hair growth [3]: cause no hair growth

CC(C)(C)NC(=O)[C@H]1CC[C@H]2[C@@H]3CC[C@H]4NC(=O)C=C[C@]4(C)[C@H]3CC[C@]12C [finasteride, (1S,3aS,3bS,5aR,9aR,9bS,11aS)-N-tert-butyl-9a,11a-dimethyl-7-oxo-1,2,3,3a,3b,4,5,5a,6,9b,10,11-dodecahydroindeno[5,4-f]quinoline-1-carboxamide]
decrease of DHT production [4]: about 70%

CC(C)OC(=O)CCC/C=C\C[C@@H]1[C@@H](CC[C@@H](O)CCc2ccccc2)[C@H](O)C[C@@H]1O [latanoprost, Latanoprost]
time stable (acidic or basic aqueous solutions): no more than 48 hours
time stable (neutral aqueous solutions, room temperature): stable for up to one month
solubility, highest concentration that can be used [5]: ≥ 5%

Nc1cc(N2CCCCC2)nc(N)[n+]1OS(=O)(=O)[O-] [minoxidil sulphate]
potency as hair growth agent compared to minoxidil [6]: much more potent

CCCCCCCC(=O)CC[C@@H]1[C@@H](C/C=C\CCCC(=O)O)[C@@H](O)C[C@H]1O [uenoprostone free acid]
hair growth [3]: cause no hair growth

CCNC(=O)CCC/C=C\C[C@@H]1[C@@H](/C=C/[C@@H](O)CCc2ccccc2)[C@H](O)C[C@@H]1O [bimatoprost, Bimatoprost]
effect on elevated intraocular pressure in combination [7]: additive to that of latanoprost
response in reducing elevated intraocular pressure [8]: responsive
